Experimental data: paper PMC2810234, “Lyngbyastatins 8–10, Elastase Inhibitors with Cyclic Depsipeptide Scaffolds Isolated from the Marine Cyanobacterium Lyngbya semiplena” (Marine Drugs, 2009)

molecular target: T1, porcine pancreatic elastase (Sus scrofa, UniProt P00772); test: Inhibition of porcine pancreatic elastase; type: biochemical; settings: elastase stock 75 μg/mL (5 μL), Tris-HCl pH 8.0; compound 1 μL in DMSO; preincubated 15 min at room temperature; substrate 2 mM N-succinyl-Ala-Ala-Ala-p-nitroanilide solution (15 μL); absorbance 405 nm every 30 s, initial slope vs uninhibited; triplicate
T1 construct: purchased EPC (Elastin Products Company) EC134
T1 sequence (P00772 27-266): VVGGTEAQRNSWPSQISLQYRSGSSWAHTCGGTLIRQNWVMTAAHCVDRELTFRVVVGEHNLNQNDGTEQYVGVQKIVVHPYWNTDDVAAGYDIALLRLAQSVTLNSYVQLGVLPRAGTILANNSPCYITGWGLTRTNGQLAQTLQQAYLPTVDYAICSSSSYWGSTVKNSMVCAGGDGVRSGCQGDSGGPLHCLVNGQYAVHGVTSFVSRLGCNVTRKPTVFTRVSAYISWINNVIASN
Experimental: A stock solution of porcine pancreatic elastase (Elastase-high purity; EPC, EC134) was prepared at a concentration of 75 μg/mL in Tris-HCl (pH 8.0). Aliquots of test compounds (1 μL, DMSO) were preincubated with 79 μL Tris-HCl (pH 8.0) and 5 μL elastase stock for 15 min at room temperature in a microtiter plate. After this time, 15 μL substrate solution was added (2 mM N-succinyl-Ala-Ala-Ala-p-nitroanilide in Tris-HCl, pH 8.0) to each well, and the reaction was followed by measuring the absorbance at 405 nm every 30 s. Enzyme activity was determined by calculating the initial slope of each progress curve, expressed as a percentage of the slope of the uninhibited reaction.

SMILES	IC50
C/C=C1\NC(=O)[C@@H](NC(=O)[C@@H](NC(=O)[C@H](C)NC(C)=O)C(C)C)[C@@H](C)OC(=O)[C@H](C(C)C)NC(=O)[C@H](Cc2ccc(O)cc2)N(C)C(=O)[C@H](Cc2ccccc2)N2C(=O)[C@H](CC[C@H]2O)NC1=O [Compound 1, Lyngbyastatin 8]	123 ± 2 nM
C/C=C1\NC(=O)[C@@H](NC(=O)[C@@H](NC(=O)[C@H](C)NC(=O)CCC)C(C)C)[C@@H](C)OC(=O)[C@H](C(C)C)NC(=O)[C@H](Cc2ccc(O)cc2)N(C)C(=O)[C@H](Cc2ccccc2)N2C(=O)[C@H](CC[C@H]2O)NC1=O [Compound 2, Lyngbyastatin 9]	210 ± 10 nM
C/C=C1\NC(=O)[C@@H](NC(=O)[C@@H](NC(=O)[C@H](C)NC(=O)CCC)C(C)C)[C@@H](C)OC(=O)[C@H](C(C)C)NC(=O)[C@H](Cc2ccc(O)c(Br)c2)N(C)C(=O)[C@H](Cc2ccccc2)N2C(=O)[C@H](CC[C@H]2O)NC1=O [Compound 3, Lyngbyastatin 10]	120 ± 16 nM
